Laboratory results from the OligoGym collection.
Values joined by “and” are separate entries in the source; they are usually repeats but may differ in a detail not shown here. Identical values can stand only once. HELM strings list units from the 5' end as sugar, base in round brackets, then linkage (d deoxyribose, r ribose, m 2'-O-methyl, p phosphodiester). Strings are as the collection lists them, not checked against the first reports. ss, as = sense and antisense strand; [fl2r] = 2'-fluoro

Conditions: siRNA
Also: test system not given here.

In order of falling target mRNA knockdown:
1. RNA1{r(G)p.r(A)p.r(A)p.r(A)p.r(C)p.m(U)p.m(G)p.r(G)p.m(U)p.r(A)p.r(C)p.r(U)p.r(U)p.r(U)p.r(C)p.r(C)p.r(C)p.r(C)p.r(C)p.r(T)p.r(T)}|RNA2{r(G)p.r(G)p.r(G)p.r(G)p.r(G)p.r(A)p.r(A)p.r(A)p.r(G)p.m(U)p.r(A)p.r(C)p.r(C)p.r(A)p.r(G)p.r(U)p.r(U)p.r(U)p.r(C)p.r(T)p.r(T)}$$$RNA1{StrandType:ss}|RNA2{StrandType:as}$  88%
2. RNA1{r(G)p.r(A)p.r(A)p.r(A)p.r(C)p.m(U)p.m(G)p.r(G)p.m(U)p.r(A)p.r(C)p.m(U)p.r(U)p.r(U)p.r(C)p.r(C)p.r(C)p.r(C)p.r(C)p.r(T)p.r(T)}|RNA2{r(G)p.r(G)p.r(G)p.r(G)p.r(G)p.r(A)p.r(A)p.r(A)p.r(G)p.m(U)p.r(A)p.r(C)p.m(C)p.m(A)p.r(G)p.r(U)p.r(U)p.r(U)p.r(C)p.r(T)p.r(T)}$$$RNA1{StrandType:ss}|RNA2{StrandType:as}$  85%
3. RNA1{r(G)p.r(A)p.r(A)p.r(G)p.r(A)p.r(G)p.r(C)p.r(C)p.m(U)p.r(A)p.m(C)p.r(A)p.r(C)p.r(A)p.r(A)p.r(C)p.r(C)p.r(C)p.r(U)p.r(T)p.r(T)}|RNA2{r(A)p.r(G)p.r(G)p.r(G)p.r(U)p.r(U)p.r(G)p.m(U)p.r(G)p.m(U)p.r(A)p.r(G)p.r(G)p.r(C)p.r(U)p.r(C)p.r(U)p.r(U)p.r(C)p.r(T)p.r(T)}$$$RNA1{StrandType:ss}|RNA2{StrandType:as}$  76%
4. RNA1{r(G)p.r(A)p.r(A)p.r(G)p.r(A)p.r(G)p.r(C)p.r(C)p.m(U)p.r(A)p.m(C)p.r(A)p.m(C)p.r(A)p.r(A)p.r(C)p.r(C)p.r(C)p.r(U)p.r(T)p.r(T)}|RNA2{r(A)p.r(G)p.r(G)p.r(G)p.r(U)p.m(U)p.r(G)p.m(U)p.r(G)p.m(U)p.r(A)p.r(G)p.r(G)p.r(C)p.r(U)p.r(C)p.r(U)p.r(U)p.r(C)p.r(T)p.r(T)}$$$RNA1{StrandType:ss}|RNA2{StrandType:as}$  75%
5. RNA1{r(G)p.r(A)p.r(A)p.r(G)p.r(A)p.r(G)p.r(C)p.r(C)p.m(U)p.m(A)p.m(C)p.r(A)p.m(C)p.r(A)p.r(A)p.r(C)p.r(C)p.r(C)p.r(U)p.r(T)p.r(T)}|RNA2{r(A)p.r(G)p.r(G)p.r(G)p.r(U)p.m(U)p.r(G)p.m(U)p.r(G)p.m(U)p.r(A)p.r(G)p.r(G)p.r(C)p.r(U)p.r(C)p.r(U)p.r(U)p.r(C)p.r(T)p.r(T)}$$$RNA1{StrandType:ss}|RNA2{StrandType:as}$  74%
6. RNA1{r(G)p.r(A)p.r(A)p.r(G)p.r(A)p.r(G)p.r(C)p.r(C)p.r(U)p.r(A)p.m(C)p.r(A)p.m(C)p.r(A)p.r(A)p.r(C)p.r(C)p.r(C)p.r(U)p.r(T)p.r(T)}|RNA2{r(A)p.r(G)p.r(G)p.r(G)p.r(U)p.m(U)p.r(G)p.r(U)p.r(G)p.m(U)p.r(A)p.r(G)p.r(G)p.r(C)p.r(U)p.r(C)p.r(U)p.r(U)p.r(C)p.r(T)p.r(T)}$$$RNA1{StrandType:ss}|RNA2{StrandType:as}$  74%
7. RNA1{r(G)p.r(A)p.r(A)p.m(U)p.r(A)p.r(A)p.r(C)p.r(C)p.r(U)p.r(G)p.r(A)p.r(A)p.r(C)p.r(G)p.r(U)p.m(C)p.r(A)p.r(C)p.r(C)p.r(T)p.r(T)}|RNA2{r(G)p.r(G)p.r(U)p.r(G)p.r(A)p.r(C)p.r(G)p.r(U)p.r(U)p.m(C)p.r(A)p.r(G)p.r(G)p.r(U)p.r(U)p.r(A)p.r(U)p.r(U)p.r(C)p.r(T)p.r(T)}$$$RNA1{StrandType:ss}|RNA2{StrandType:as}$  71%
8. RNA1{r(G)p.r(A)p.r(A)p.r(A)p.r(C)p.r(U)p.r(G)p.r(G)p.[fl2r](U)p.r(A)p.r(C)p.r(U)p.r(U)p.r(U)p.r(C)p.r(C)p.r(C)p.r(C)p.r(C)p.r(T)p.r(T)}|RNA2{r(G)p.r(G)p.r(G)p.r(G)p.r(G)p.r(A)p.r(A)p.r(A)p.r(G)p.[fl2r](U)p.r(A)p.r(C)p.r(C)p.r(A)p.r(G)p.r(U)p.r(U)p.r(U)p.r(C)p.r(T)p.r(T)}$$$RNA1{StrandType:ss}|RNA2{StrandType:as}$  58%
9. RNA1{r(G)p.r(A)p.r(A)p.r(A)p.r(A)p.r(C)p.r(G)p.r(C)p.r(U)p.r(U)p.r(G)p.r(U)p.r(A)p.r(A)p.r(A)p.r(G)p.r(C)p.r(C)p.r(G)p.r(T)p.r(T)}|RNA2{r(C)p.r(G)p.r(G)p.r(C)p.r(U)p.r(U)p.m(U)p.r(A)p.r(C)p.r(A)p.r(A)p.r(G)p.r(C)p.r(G)p.r(U)p.r(U)p.r(U)p.r(U)p.r(C)p.r(T)p.r(T)}$$$RNA1{StrandType:ss}|RNA2{StrandType:as}$  56%
10. RNA1{r(G)p.r(A)p.r(A)p.r(C)p.r(U)p.r(C)p.r(U)p.r(U)p.r(A)p.r(G)p.r(C)p.r(G)p.r(U)p.r(A)p.r(U)p.r(G)p.r(C)p.r(A)p.r(A)p.d(T)p.d(T)}|RNA2{r(U)p.r(U)p.r(G)p.r(C)p.r(A)p.r(U)p.r(A)p.r(C)p.r(G)p.r(C)p.r(U)p.r(A)p.r(A)p.r(G)p.r(A)p.r(G)p.r(U)p.r(U)p.r(C)p.d(T)p.d(T)}$$$RNA1{StrandType:ss}|RNA2{StrandType:as}$  56%
11. RNA1{r(G)p.r(A)p.r(A)p.r(G)p.r(A)p.[fl2r](U)p.r(A)p.r(G)p.r(G)p.r(A)p.r(A)p.r(G)p.r(G)p.r(G)p.r(G)p.r(C)p.r(U)p.r(U)p.r(C)p.r(T)p.r(T)}|RNA2{r(G)p.r(A)p.r(A)p.r(G)p.r(C)p.r(C)p.r(C)p.r(C)p.r(U)p.r(U)p.r(C)p.r(C)p.[fl2r](U)p.r(A)p.r(U)p.r(C)p.r(U)p.r(U)p.r(C)p.r(T)p.r(T)}$$$RNA1{StrandType:ss}|RNA2{StrandType:as}$  56%
12. RNA1{r(G)p.r(A)p.r(A)p.m(U)p.r(A)p.r(A)p.r(C)p.r(C)p.r(U)p.r(G)p.r(A)p.r(A)p.r(C)p.r(G)p.r(U)p.r(C)p.r(A)p.r(C)p.r(C)p.r(T)p.r(T)}|RNA2{r(G)p.r(G)p.r(U)p.r(G)p.r(A)p.r(C)p.r(G)p.r(U)p.r(U)p.r(C)p.r(A)p.r(G)p.r(G)p.r(U)p.m(U)p.r(A)p.r(U)p.r(U)p.r(C)p.r(T)p.r(T)}$$$RNA1{StrandType:ss}|RNA2{StrandType:as}$  55%
13. RNA1{r(G)p.r(A)p.r(A)p.r(A)p.r(A)p.r(C)p.r(G)p.r(C)p.r(U)p.m(U)p.r(G)p.m(U)p.r(A)p.r(A)p.r(A)p.r(G)p.r(C)p.r(C)p.r(G)p.r(T)p.r(T)}|RNA2{r(C)p.r(G)p.r(G)p.r(C)p.r(U)p.r(U)p.m(U)p.r(A)p.m(C)p.r(A)p.r(A)p.r(G)p.r(C)p.r(G)p.r(U)p.r(U)p.r(U)p.r(U)p.r(C)p.r(T)p.r(T)}$$$RNA1{StrandType:ss}|RNA2{StrandType:as}$  54%
14. RNA1{r(G)p.r(A)p.r(A)p.r(G)p.r(A)p.r(G)p.r(U)p.m(U)p.r(A)p.r(A)p.r(C)p.r(C)p.r(C)p.r(G)p.r(G)p.r(G)p.r(A)p.r(C)p.r(U)p.r(T)p.r(T)}|RNA2{r(A)p.r(G)p.r(U)p.r(C)p.r(C)p.r(C)p.r(G)p.r(G)p.r(G)p.r(U)p.m(U)p.r(A)p.r(A)p.r(C)p.r(U)p.r(C)p.r(U)p.r(U)p.r(C)p.r(T)p.r(T)}$$$RNA1{StrandType:ss}|RNA2{StrandType:as}$  51%
15. RNA1{r(G)p.r(A)p.r(A)p.r(G)p.r(A)p.r(G)p.r(U)p.m(U)p.r(A)p.r(A)p.r(C)p.r(C)p.r(C)p.m(G)p.r(G)p.r(G)p.m(A)p.r(C)p.r(U)p.r(T)p.r(T)}|RNA2{r(A)p.r(G)p.r(U)p.r(C)p.r(C)p.r(C)p.r(G)p.r(G)p.r(G)p.r(U)p.m(U)p.r(A)p.r(A)p.r(C)p.r(U)p.r(C)p.r(U)p.r(U)p.r(C)p.r(T)p.r(T)}$$$RNA1{StrandType:ss}|RNA2{StrandType:as}$  47%
16. RNA1{r(G)p.r(A)p.r(A)p.r(G)p.r(A)p.[fl2r](U)p.r(A)p.r(G)p.r(G)p.r(A)p.r(A)p.r(G)p.r(G)p.r(G)p.r(G)p.[fl2r](C)p.[fl2r](U)p.[fl2r](U)p.[fl2r](C)p.r(T)p.r(T)}|RNA2{r(G)p.r(A)p.r(A)p.r(G)p.r(C)p.r(C)p.r(C)p.r(C)p.r(U)p.r(U)p.r(C)p.r(C)p.r(U)p.r(A)p.r(U)p.r(C)p.r(U)p.r(U)p.r(C)p.r(T)p.r(T)}$$$RNA1{StrandType:ss}|RNA2{StrandType:as}$  45%
17. RNA1{r(G)p.r(A)p.m(U)p.r(A)p.r(G)p.r(G)p.r(A)p.r(A)p.r(G)p.r(G)p.r(G)p.r(G)p.r(C)p.r(U)p.r(U)p.r(C)p.r(A)p.r(G)p.r(C)p.r(T)p.r(T)}|RNA2{r(G)p.r(C)p.r(U)p.r(G)p.r(A)p.r(A)p.r(G)p.r(C)p.r(C)p.r(C)p.r(C)p.r(U)p.r(U)p.r(C)p.r(C)p.m(U)p.m(A)p.r(U)p.r(C)p.r(T)p.r(T)}$$$RNA1{StrandType:ss}|RNA2{StrandType:as}$  41%
18. RNA1{r(G)p.r(A)p.r(A)p.r(A)p.r(C)p.r(U)p.r(G)p.r(G)p.r(U)p.r(A)p.r(C)p.r(U)p.r(U)p.r(U)p.r(C)p.r(C)p.r(C)p.r(C)p.r(C)p.r(T)p.r(T)}|RNA2{r(G)p.r(G)p.r(G)p.r(G)p.r(G)p.r(A)p.r(A)p.r(A)p.r(G)p.[fl2r](U)p.r(A)p.r(C)p.r(C)p.r(A)p.r(G)p.[fl2r](U)p.[fl2r](U)p.[fl2r](U)p.r(C)p.r(T)p.r(T)}$$$RNA1{StrandType:ss}|RNA2{StrandType:as}$  26%
19. RNA1{r(G)p.r(A)p.r(A)p.r(G)p.r(A)p.r(U)p.r(A)p.r(G)p.r(G)p.r(A)p.r(A)p.r(G)p.r(G)p.r(G)p.r(G)p.r(C)p.r(U)p.r(U)p.r(C)p.r(T)p.r(T)}|RNA2{r(G)p.r(A)p.r(A)p.r(G)p.[fl2r](C)p.[fl2r](C)p.[fl2r](C)p.[fl2r](C)p.[fl2r](U)p.[fl2r](U)p.[fl2r](C)p.[fl2r](C)p.[fl2r](U)p.r(A)p.[fl2r](U)p.[fl2r](C)p.[fl2r](U)p.[fl2r](U)p.[fl2r](C)p.r(T)p.r(T)}$$$RNA1{StrandType:ss}|RNA2{StrandType:as}$  5%

In the case of “RNA1{r(G)p.r(A)p.r(A)p.m(U)p.r(A)p.r(A)p.r(C)p.r(C)p.m(U)p.r(G)p.r(A)p.r(A)p.r(C)p.r(G)p.r(U)p.m(C)p.r(A)p.r(C)p.r(C)p.r(T)p.r(T)}|RNA2{r(G)p.r(G)p.m(U)p.r(G)p.r(A)p.r(C)p.r(G)p.r(U)p.r(U)p.m(C)p.r(A)p.r(G)p.r(G)p.r(U)p.m(U)p.r(A)p.r(U)p.r(U)p.r(C)p.r(T)p.r(T)}$$$RNA1{StrandType:ss}|RNA2{StrandType:as}$”, the target mRNA knockdown is reported as 51% and 69%.
